According to patent US11214556B1, “Method of treating colorectal cancer” (King Abdulaziz University, priority 2019, dated 2022):

How the values were obtained:
[1] = tested on: CACO-2 cells; assay: SRB cytotoxicity assay, CACO-2; type: cell-based, human; conditions: 72 h exposure, ± SEM
Summary of the method: (§1)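 Cells seeded at 5000/well, grown 24 h, then exposed 72 h at 37 °C to 0.01–100 μM compound or 1% DMSO in RPMI1640 with 10% FBS. TCA-fixed, SRB-stained, OD read at 510 nm; viability expressed relative to untreated control cells.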

[2] = tested on: HT-29 cells; assay: SRB cytotoxicity assay, HT-29; type: cell-based, human; conditions: monolayer, 72 h exposure, ± SEM
Summary of the method: as §1

[3] = tested on: baby hamster kidney (BHK) cell lines; assay: Cytotoxicity against normal baby hamster kidney cells; type: cell-based; conditions: 72 h
Method: FIG. 3B is a graph illustrating the cytotoxic effect of 4112 against human colon adenocarcinoma cancer cells (HCT-116, Caco-2 and HT-29) vs. normal baby hamster kidney cells (BHK). All cells were exposed to different concentrations of 4112 for 72 h. The cell viability concentration curves were plotted, and the IC50 were determined. *denotes significance at P<0.001;
Based on the favorable pharmacologic and physicochemical properties of MOS-1512, it was selected as a new lead for the second subset of compounds (MOS-1812 to MOS-5112). The compounds in this series contained variable groups at R^1 and R^2 that were all tested against the three cancer cell lines (HCT-116, Caco-2 and HT-29). […]
The sulforhodamine B (SRB) assays were performed according to Skehan, P.; Storeng, R.; Scudiero, D.; Monks, A.; McMahon, J.; Vistica, D.; Warren, J. T.; Bokesch, H.; Kenney, S.; Boyd, M. R., New colorimetric cytotoxicity assay for anticancer-drug screening. […] Briefly, exponentially growing cells were trypsinized, counted and seeded at the appropriate densities (5000 cells/100 μL/well) into 96-well microtiter plates. […] The protein-bound dye was dissolved in 10 mM Tris base solution for (optical density) OD determination at 510 nm using a SpectraMax plus Microplate Reader (Molecular Devices, CA). […]

[4] = tested on: HCT-116 cells; assay: Nuclear fragmentation by DAPI staining; type: cell-based, human; conditions: 2.85 μM (IC50), 48 h compared to 24 h
Method: Several assays were performed to determine the apoptotic effect of the early lead MOS-1512 as well as the potent derivative MOS-4112 on HCT-116 cells. […] See Drutovic, D.; Chripkova, M.; Pilatova, M.; Kruzliak, P.; Perjesi, P.; Sarissky, M.; Lupi, M.; Damia, G.; Broggini, M.; Mojzis, J., Benzylidenetetralones, cyclic chalcone analogues, induce cell cycle arrest and apoptosis in HCT116 colorectal cancer cells. Tumour Biol 2014, 35 (10), 9967-75, incorporated herein by reference in its entirety.
Cells were cultured on sterile 22 mm^2 cover slips (Harvard Apparatus, MA, USA) in sterile six well plates at a density of 2×10^5 cells/well. […] The fixed and permeabilized cells nuclei were denatured with 2 N HCl (300 μl) for 10 min, washed three times more, and treated with 0.1 μg/ml 4′,6′-diamidino-2-phenylindole, dihydrochloride (DAPI) (Sigma-Aldrich, St. Louis, Mo., USA) (1:1000) in (phosphate-buffered saline-Tween 20 (PBST) for 1 hr. After staining, the cells were washed twice with PBS. The cover slips were then mounted on a glass slide with anti-fade mounting medium and viewed with an epifluorescence microscope, Leica, DM 5500 B (Leica, Buffalo Grove, Ill., USA) at a magnification of 60×, and data were captured digitally and quantified using the microscope provided software.

[5] = tested on: HCT-116 cells; assay: Annexin V/propidium iodide apoptotic cell determination; type: cell-based, human; conditions: IC50 concentration
Method: Apoptosis was determined by staining cells with Annexin V-fluorescein isothiocyanate (FITC) and counterstaining with propidium iodide (PI) using the Annexin V-FITC/PI apoptosis detection kit (BD Biosciences, San Diego, Calif., USA) according to the manufacturer's instructions. Briefly, 4×10^6 cell/T 75 flask were exposed to the IC50 of tested compound for 24 and 48 h. The cells were collected by trypsinization and 0.5×10^6 cells were washed twice with phosphate-buffered saline (PBS) and stained with 5 μl Annexin V-FITC and 5 μl PI in 1× binding buffer (BD Biosciences, San Jose, Calif., USA) for 15 min at room temperature in the dark. Analyses were performed using FACS Calibur flow cytometer (BD Biosciences, San Jose, Calif., USA).

[6] = tested on: HT-29 colon cancer cell spheroids (cancer stem cells); assay: Primary (1°) colonosphere formation assay; type: cell-based, human
Method: Compound 4112 and another potent compound 3712 were also evaluated for their ability to inhibit cancer stem cell proliferation using a primary (1°) colonosphere formation assay. In this assay, HT-29 colon cancer cells were grown in low adhesion plates to form spheres as previously described. See Patel, N. J.; Karuturi, R.; Al-Horani, R. A.; Baranwal, S.; Patel, J.; Desai, U. R.; Patel, B. B., Synthetic, non-saccharide, glycosaminoglycan mimetics selectively target colon cancer stem cells. ACS Chem Biol 2014, 9 (8), 1826-33, incorporated herein by reference in its entirety. Wells treated with the inventive compounds were compared to vehicle treated cells for primary sphere growth inhibition after 5 days of incubation. […] Of note, monolayer growth conditions are ideally suited for examining cellular proliferation, whereas spheroid growth conditions examine cancer stem cell growth and self-renewal properties.
For primary sphere formation, cells were plated in nontreated, low adhesion, 96 wells plate at the concentration of 100 cells/100 μL/well in stem cell media (SCM) that consisted of DMEM:F12:AA (Gibco), supplemented with 1×B27 (Gibco), 20 ng/mL epidermal growth factor, and 10 ng/mL fibroblast growth factor (Sigma). After 4 h of incubation, vehicle (control) or 3712 and 4112 at the desired concentrations were added to each well (at least in triplicates for each sample). On day five, numbers of spheres ranging from […] in diameter were counted using phase contrast microscope and percent inhibition was calculated compared to control.

## CCCNC(=O)/C(=C/c1c[nH]c2ccccc12)NC(=O)/C=C/c1cccs1 [Compound 4112, (Z)-3-(1H-indol-3-yl)-N-propyl-2-[(E)-3-(thien-2-yl)acrylamidolacry]amide]
[1]
  IC50: 0.89 ± 0.04 µM
[2]
  IC50: 1.65 ± 0.07 µM
[3]
  IC50: 77.6 ± 6.2 µM
[4]
  percentage of cells with fragmented DNA and condensed nuclei: greatly increased
[5]; after 48 hours
  cell population in early apoptosis: 17.5%
  cell population in late apoptosis: 4.1%
  viable cells: 72%
[5]; at 24 hours
  change in cell viability: very little change in cell viability
[6]; HT-29 spheres, 5 days of incubation
  IC50: 18.9 ± 1.1 µM
[6]; spheroids >50 μm, 5 days
  inhibition of colon cancer spheroids formation: dose-dependent inhibition
